Consider 25 compounds from ChEMBL document CHEMBL1124736, “Novel quinuclidine-based ligands for the muscarinic cholinergic receptor” (J Med Chem, 1990).

Experiment [1] has as its target T1, Muscarinic acetylcholine receptor (Rattus norvegicus) (UniProt P08482+P08483+P08485+P08911+P10980).
Description: In vitro for its ability to displace [3H]NMS from muscarinic acetylcholine receptor in rat cortical homogenates
The target in experiment [2] is T1, Muscarinic acetylcholine receptor (Rattus norvegicus). The source holds these as a separate data set.
Description: In vitro displacement of [3H]OXO-M from muscarinic acetylcholine receptor in rat cortical homogenates
Experiment [3] in a line: Log of the ratio of Kapp([3H]-NMS)/Kapp([3H]-OXO-M) was determined.
In experiment [4] the target is T1, Muscarinic acetylcholine receptor (Rattus norvegicus). In words: Compound was tested in vitro for its ability to displace [3H]OXO-M from Muscarinic acetylcholine receptor in rat cortical homogenates.

For `CC(=O)Nc1noc(C2CN3CCC2CC3)n1` (configuration not stated), the K app amounted to 23 µM in experiment [1] and 0.12 µM in experiment [2].
Take `Cc1coc(C2CN3CCC2CC3)n1` (configuration not stated): the results for the K app in experiment [1] and in experiment [2] were 1.4 µM and 0.027 µM, respectively. Also, in experiment [3], the Log ratio came out at 1.72.
For the compound `OC(c1ccccc1)(c1ccccc1)c1noc(C2CN3CCC2CC3)n1` (configuration not stated), the K app in experiment [1] was determined as 0.00012 µM; in experiment [2], 6.7e-05 µM.
For `CN(C)c1noc(C2CN3CCC2CC3)n1` (configuration not stated) the same measures were 0.2 µM and 0.021 µM.
On the same counts, the results for `CCc1noc(C2CN3CCC2CC3)n1` (configuration not stated) are 0.096 µM and 0.0056 µM.
For `C[N+]12CCC(CC1)C(c1nc(N)no1)C2` (configuration not stated) the same measures were 6.6 µM and 0.079 µM.
As for `Cc1cnc(C2CN3CCC2CC3)o1` (configuration not stated), the K app turned out to be 0.73 µM in experiment [1] and 0.04 µM in experiment [2].
On to `N#Cc1noc(C2CN3CCC2CC3)n1` (configuration not stated), for which the K app in experiment [1] was 2.6 µM; in experiment [2] it was 0.043 µM.
On the same counts, the results for `c1coc(C2CN3CCC2CC3)n1` (configuration not stated) are 6.7 µM and 0.038 µM.
On the same counts, the results for `Cc1noc(C2=CN3CCC2CC3)n1` are 15 µM and 0.4 µM.
Regarding `Cc1nnc(C2CN3CCC2CC3)o1` (configuration not stated), the K app in experiment [1] was 7.5 µM; in experiment [2], 0.06 µM. For the same compound, the Log ratio in experiment [3] was 2.11.
`CNc1noc(C2CN3CCC2CC3)n1` (configuration not stated): the K app in experiment [1] worked out at 2 µM; in experiment [2] it was 0.053 µM.
On the same counts, the results for `Brc1noc(C2CN3CCC2CC3)n1` (configuration not stated) are 0.19 µM and 0.0011 µM.
For `Cc1noc(C2=CCCN(C)C2)n1` the same measures were 1.8 µM and 0.0046 µM.
For `NC(=O)c1noc(C2CN3CCC2CC3)n1` (configuration not stated) the same measures were 39 µM and 1.7 µM.
As for `Clc1noc(C2CN3CCC2CC3)n1` (configuration not stated), the values for the K app in experiment [1] and in experiment [2] were 0.19 µM and 0.00048 µM, respectively. In addition, the Log ratio in experiment [3] stood at 2.6.
Compound `Nc1noc(C2CN3CCC2CC3)n1` (configuration not stated) yielded a K app in experiment [2] of 0.0005 µM. Moreover, the Log ratio in experiment [3] was determined as 3.08.
For `COc1noc(C2CN3CCC2CC3)n1` (configuration not stated), the K app in experiment [1] is 0.52 µM; in experiment [2] it was 0.014 µM.
As for `Cc1nc(C2CN3CCC2CC3)no1` (configuration not stated), the K app in experiment [1] amounted to 2.9 µM; in experiment [2], 0.054 µM. Further, the Log ratio in experiment [3] stood at 1.73.
On the same counts, the results for `Cc1ccc(C2CN3CCC2CC3)o1` (configuration not stated) are 0.25 µM, 0.013 µM and 1.28.
For `Cc1coc(C2CN3CCC2CC3)c1` (configuration not stated) the same measures were 1.4 µM, 0.057 µM and 1.18.
`Cc1cc(C2CN3CCC2CC3)on1` (configuration not stated): the results for the K app in experiment [1] and in experiment [2] were 1.4 µM and 0.036 µM, respectively. Besides, the Log ratio in experiment [3] is 1.59.
Regarding `COC(=O)C1CN2CCC1CC2` (configuration not stated), the K app in experiment [1] was 8.6 µM; in experiment [2] it was 0.023 µM.
Take `Cc1noc(C2CN3CCC2CC3)n1` (configuration not stated): in experiment [3], the Log ratio is 2.69. In experiment [4], this compound yielded a K app of 0.0009 µM.
For `c1ccc(Cc2noc(C3CN4CCC3CC4)n2)cc1` (configuration not stated), the figures for the K app in experiment [1] and in experiment [2] were 0.07 µM and 0.021 µM, respectively.
